Data: paper PMC11402852, “Genotoxicity of selected cannabinoids in human lymphoblastoid TK6 cells” (Archives of Toxicology, 2024)
Where two headings read alike, the source gives them in different places.

Experiments:
[1] = tested on: human lymphoblastoid TK6 cells; assay: Kinetochore analysis of micronuclei; assay type: cell-based; details: 4 h; for Kinetochore (+) MNi, %: of 200 micronuclei, CBG 30 µM, CBD 15 µM, CBC 15 µM, CBDV 40 µM, CBN 15 µM, MMS 40 µM, vincristine 0.0121 µM, one experiment
Protocol: For kinetochore analysis, cells were treated for 4 h with CBG 30 µM, CBD 15 µM, CBC 15 µM, CBDV 40 µM, and CBN 15 µM. The positive controls were MMS 40 µM, and vincristine sulphate 0.0121 µM; the solvent control was DMSO. After 4 h of treatment, the culture medium was renewed, and cells were exposed for 24 h to the cytokinesis inhibitor cytochalasin B (3 μg/mL). Then, cells were harvested, and slides were prepared with cytospin centrifugation. The cells were fixed in ice-cold methanol for 2 h. Kinetochores were stained overnight with undiluted primary anti-centromere antibody at 37 °C followed by 1:20 diluted FITC-conjugated secondary antibody at 37 °C for 2 h. Nuclei were counterstained with Hoechst 33,258 (5 µg/mL, 3 min). The experiment was performed one time. Per compound, 200 micronuclei were evaluated for kinetochore signal presence (Fig. 3). The evaluation was performed with a Keyence BZ-X800 microscope. The slides used in kinetochore evaluation were also evaluated for the number of induced micronuclei as described in the above paragraph cytokinesis‑block micronucleus assay.

TK6 cells [2] = assay: Tubulin visualization; assay type: cell-based, human; details: 6 h; CBG 30 µM, CBD 15 µM, CBC 15 µM, CBN 15 µM; visually compared to control, not quantified
Protocol: For tubulin visualization, cells were treated with CBG 30 µM, CBD 15 µM, CBC 15 µM, CBDV 40 µM, and CBN 15 µM. The positive control was vincristine sulphate 0.0121 µM, and the solvent control was DMSO. Cells were treated for 6 h and then harvested. Slides were prepared with cytospin centrifugation. The cells were fixed in ice-cold methanol for 2 h. Following fixation, cells were permeabilized with 0.1% Tween20 in 1 × phosphate-buffered saline (PBS) for 5 min. Next, the anti-α-tubulin antibody was applied in 1:50 dilution. Antibody was diluted with 5% FCS in 1 × PBS. The antibody was incubated in a humid chamber at 4 °C for 24 h. Afterwards, the antibody was removed by washing slides twice with 0.5% Tween20 in 1 × PBS for 5 min. Nuclei were counterstained with Hoechst 33,258 (5 µg/mL, 3 min). The visualization was performed with a Keyence BZ-X800 microscope.

[3] = tested on: human lymphoblastoid TK6 cells; assay: Cytokinesis-block micronucleus (CBMN) assay; details: for BMDL (10th percentile): 10th percentile of BMD50 estimation; for BMDL (10th percentile) / BMDU (90th percentile) / Number of micronuclei with S9 mix vs without: 4 h; for BMDL (10th percentile) / BMDU (90th percentile): micronucleus data; for 4 h BMD50: 50% increased relative genotoxicity vs controls, from micronucleus data, without S9, Bayesian BMD analysis; for 4 h BMD50 / Micronucleus induction: 4 h treatment; for BMDU (90th percentile): 90th percentile of BMD50 estimation; for Number of micronuclei with S9 mix vs without: CBG 30 µM, CBD 15 µM, CBC 15 µM, CBDV 40 µM, CBN 15 µM, 0.25% S9 mix; for Micronucleus induction: without metabolic activation, at least one concentration, vs solvent control
[4] = design: method as in Peters et al. [2022]; details: after consuming medical cannabis oil, ref Peters et al. [2022], cited from earlier work
TK6 cells [5] = assay: Cell cycle analysis (flow cytometry, DAPI); assay type: cell-based, human
Protocol: The cells were treated with CBG 30 µM, CBD 15 µM, CBC 15 µM, CBDV 40 µM, and CBN 15 µM for 6 or 24 h. The positive control was vincristine sulphate in a concentration of 0.0121 µM for 6 h of exposure and 0.0061 µM for 24 h. The solvent control was DMSO. Furthermore, experiments with the addition of S9 mix were performed with CBDV. In these experiments, cells were treated with CBDV (40 µM) with or without 0.25% S9 mix for 6 h. DMSO with or without the S9 mix was used as control, and the positive control was the same as mentioned above. After the treatment, cells were collected, washed twice with phosphate buffered saline (PBS) and fixed with 70% ethanol for 30 min on ice. Following each described step above, cells were centrifuged at 1000 rpm, 5 min, and 4 °C. Lastly, cells were resuspended in 1% bovine serum albumin (BSA) in PBS solution and stained with DAPI in a final concentration of 1 µg/mL for 30 min on ice. The cell distribution in different cell cycle phases was analyzed with MACSQuant® Analyzer 16 Flow Cytometer using a 450/50 nm filter and MACSQuantify™ Software 2.13 (Miltenyi Biotec, Bergisch Gladbach, Germany). For each sample, 20 000 events were analyzed. Four independent experiments were performed for 6 h of treatment without metabolic activation. Three independent experiments were done for 24 h of treatment without metabolic activation and 6 h of treatment with metabolic activation.

[6] = tested on: human lymphoblastoid TK6 cells; details: for 4 h BMD50 / BMDL (10th percentile) / BMDU (90th percentile): human, 4 h
[7] = tested on: adult neural stem/progenitor cells; design: method as in Lourenço et al. ([2023]); details: 7 days of exposure; phase not indicated; ref Lourenço et al. ([2023]); cited from earlier work
[8] = design: method as in Hurley et al. ([2022]); details: epilepsy treatment in children, ref Hurley et al. ([2022]), cited from earlier work
[9] = tested on: human buccal cell line TR146; design: method as in Russo et al. ([2019]); details: TR146, after 3 and 24 h; ref Russo et al. ([2019]); cited from earlier work
[10] = frequent Cannabis smokers, inhalation, ref Newmeyer et al. [2016], cited from earlier work; for Cmax: read-out: Mean maximum concentration (Cmax) in blood
[11] = tested on: human mesothelioma, cholangiocellular carcinoma and ovarian carcinoma cell lines; design: method as in earlier work; details: 24 h of treatment; correlates with decrease of cell percentage in S phase; ref Viereckl et al. [2022]; Colvin et al. [2022]; Sooda et al. [2023]; cited from earlier work
TK6 cells [12] = assay: Mitotic disturbance assay; assay type: cell-based, human; details: 6 h, without S9; CBG 30 µM, CBD 15 µM, CBC 15 µM, CBDV 40 µM, CBN 15 µM; vs solvent control
Protocol: The cells were treated for 6 h with CBG 30 µM, CBD 15 µM, CBC 15 µM, CBDV 40 µM, and CBN 15 µM. The positive control was vincristine sulphate 0.0121 µM, and the solvent control was DMSO. For the experiments with or without the S9 mix (final concentration 0.25%), TK6 cells were treated with either CBDV 40 µM or vincristine sulphate 10 ng/mL for 6 h. DMSO with or without S9 mix was used as control. Further procedure was as described for micronucleus experiments, except with direct harvest after cannabinoid treatment without the incubation period with cytochalasin B. Two slides were evaluated with a Nikon Eclipse 55i fluorescent microscope for each experimental condition. The independent experiments were conducted three times.
The cells were counted in categories apoptosis, interphase, prophase, metaphase, anaphase-telophase, disturbed metaphase, and disturbed anaphase-telophase in 1000 cells. The mitotic index was calculated as a sum of the number of cells in prophase, metaphase, anaphase-telophase, disturbed metaphase, and disturbed anaphase-telophase in 1000 cells. Disturbed metaphase and disturbed anaphase-telophase were defined as deviating from the usual appearance of mitoses. Disturbed mitoses were assessed in 100 mitotic cells per slide.

[13] = design: method as in Zhong et al. [2023]; details: depending on the cell line; downregulating CDK1, CDK2 and cyclin E; ref Zhong et al. [2023]; cited from earlier work
[14] = treatment – control (basal level of micronuclei subtracted), same concentrations
[15] = 6 h, without S9, CBG 30 µM, CBD 15 µM, CBC 15 µM, CBDV 40 µM, CBN 15 µM

| SMILES | Kinetochore (+) MNi, % [1] [%] | Kinetochore (+) induced MNi [1, 14] [%] | Multipolar and monopolar tubulin aggregation (TK6 cells [2]) | BMDL (10th percentile) [3] [µM] | 4 h BMD50 [3] [µM] | BMDU (90th percentile) [3] [µM] | Number of micronuclei with S9 mix vs without [3] | Micronucleus induction [3] | Cell cycle distribution, 6 h (TK6 cells [5]; [15]) | Kinetochore (+) induced MNi ([1]; human) [%] | Micronucleus induction [6] | Number of micronuclei with S9 mix vs without [6] | 4 h BMD50 [6] [µM] | BMDL (10th percentile) [6] [µM] | BMDU (90th percentile) [6] [µM] | Cmax [10] [nM] | also measured |
| --- | --- | --- | --- | --- | --- | --- | --- | --- | --- | --- | --- | --- | --- | --- | --- | --- | --- |
| CCCCCc1cc(O)c2c(c1)OC(C)(CCC=C(C)C)C=C2 (centres unmarked) [CBC, cannabichromene] | 48.5 | 69.7 | observed more frequently | 2.5 | 9.8 | 34.5 | reduced as well, but not significantly | significant induction of micronuclei | no significant changes in the normal cell cycle distribution |  |  |  |  |  |  |  | Mean Cmax concentration in plasma [4]: 6.6 µg/L; Cmax ([4]; read-out: Mean Cmax concentration in plasma): 21 nM; Cell cycle distribution (time not given) (TK6 cells [5]; TK6, CBC 15 µM, CBN 15 µM, 6 or 24 h): did not observe a change in cell cycle distribution |
| C=C(C)[C@@H]1CCC(C)=C[C@H]1c1c(O)cc(CCC)cc1O [CBDV, cannabidivarin] |  |  |  |  |  |  |  |  |  | 69.8 | induced micronuclei only after metabolic activation | significant rise in micronuclei frequency | 15.3 | 1.4 | 102.9 |  | Cell cycle effect [7]: induced cell cycle arrest; Mean plasma Cmax [8]: 7.4 µg/L; Cmax ([8]; read-out: Mean plasma Cmax): 25.8 nM; DNA damage (comet assay) [9]: had the same effect on the cells as CBD; Cell cycle distribution, 6 h (TK6 cells [5]; human, 6 h, 40 µM): slight non-significant rise in cell percentage in the G1 phase; Cell cycle distribution, absence or presence of metabolic enzymes (TK6 cells [5]; human, 6 h, 40 µM): cell accumulation in the G1 phase |
| CCCCCc1cc(O)c(C/C=C(\C)CCC=C(C)C)c(O)c1 [CBG, cannabigerol] |  |  |  |  |  |  |  |  |  | 61.5 | significant induction of micronuclei | significant reduction in the number of micronuclei | 20.5 | 3.9 | 64.1 | 21.8 | Mean maximum concentration (Cmax) in blood [10]: 6.9 µg/L; Cell cycle effect [11]: arresting cells in the G0/G1 phase |
| CCCCCc1cc(O)c2c(c1)OC(C)(C)c1ccc(C)cc1-2 [CBN, cannabinol] | 46 | 63.3 | observed more frequently | 2.7 | 8.4 | 16.9 | significant reduction in the number of micronuclei | significant induction of micronuclei | no significant changes in the normal cell cycle distribution |  |  |  |  |  |  | 37.4 | Mitotic index (TK6 cells [12]): significantly decreased the mitotic index; Cell cycle effect [13]: cell cycle arrest in either the G0/G1 phase or S phase |
| COS(C)(=O)=O [MMS, methyl methane sulfonate, reference compound] | 38 | 41.9 |  |  |  |  |  |  |  |  |  |  |  |  |  |  |  |
